≈ marks a conversion by molar mass, not a printed value. Calls of active or inactive are those of the source. The calls are words filed in the database; no cut-off is given here. Starred links: 1 amine or outer side, 2 acyl side, 3 side chain; linkers in the order of their positions; H or OH if unused. Positions of bridges follow the written chain, without caps; N, C: chain ends. Non-standard residues stand in square brackets, D forms with d. Residues, ends and D or L forms follow the SMILES beside them. Chains are numbered I, II in the order given. Actinocin(9to1) = Cc1c2oc3c(C)ccc(C(=O)[*:1])c3nc-2c(C(=O)[*:2])c(N)c1=O; NMeV = CN[C@H](C(=O)O)C(C)C; Sar = CNCC(=O)O
Key:
Saccharomyces cerevisiae [1] = experiment: Antimicrobial activity against Saccharomyces cerevisiae IFO 0203 after 2 days; assay type: functional; details: IFO 0203, 48 h
[2] = system: Rhizopus microsporus var. chinensis; experiment: Antimicrobial activity against Rhizopus chinensis IFO 4745 after 2 days; assay type: functional; details: IFO 4745, 48 h
Pseudomonas aeruginosa = experiment: Antimicrobial activity against Pseudomonas aeruginosa IAM 1007 after 2 days; assay type: functional; details: IAM 1007, 48 h
Micrococcus luteus = experiment: Antimicrobial activity against Micrococcus lysodeikticus IFO 3333 after 2 days; assay type: functional; details: IFO 3333, 48 h
Bacillus subtilis = experiment: Antimicrobial activity against Bacillus subtilis K-49 after 2 days; assay type: functional; details: K-49, 48 h
Mucor mucedo = experiment: Antimicrobial activity against Mucor mucedo IFO 7684 after 2 days; assay type: functional; details: IFO 7684, 48 h
Staphylococcus aureus = experiment: Antimicrobial activity against Staphylococcus aureus NCTC 8530 after 2 days; assay type: functional; details: NCTC 8530, 48 h
Cyberlindnera jadinii [3] = experiment: Antimicrobial activity against Candida utilis ATCC 42402 after 2 days; assay type: functional; details: for MIC: Williopsis jadinii, ATCC 42402, 48 h
Wickerhamomyces anomalus [4] = experiment: Antimicrobial activity against Hansenula anomala IFO 0136 after 2 days; assay type: functional; details: IFO 0136, 48 h
Penicillium crustosum = experiment: Antimicrobial activity against Penicillium crustosum Thom after 2 days; assay type: functional; details: 48 h
Aspergillus niger = experiment: Antimicrobial activity against Aspergillus niger ATCC 6275 after 2 days; assay type: functional; details: ATCC 6275, 48 h
Sclerotinia = experiment: Antimicrobial activity against Sclerotinia libertiana SS after 2 days; assay type: functional; details: 48 h
Escherichia coli = experiment: Antimicrobial activity against Escherichia coli IFO 3545 after 2 days; assay type: functional; details: IFO 3545, 48 h
Proteus vulgaris = experiment: Antimicrobial activity against Proteus vulgaris IAM 12003 after 2 days; assay type: functional; details: IAM 12003, 48 h
[5] = system: Schizosaccharomyces pombe; experiment: Antimicrobial activity against Schizosaccharomyces pombe IFO 0342 after 2 days; assay type: functional; details: IFO 0342, 48 h
Saccharomyces cerevisiae [6] = experiment: Antifungal activity against Saccharomyces cerevisiae IFO 0203 assessed as leakage of cellular constituents at 1 to 10 ug/mL by folin reagent method; assay type: functional, organism-based
[7] = system: Schizosaccharomyces pombe; experiment: Antifungal activity against Schizosaccharomyces pombe IFO 0342 in Henneberg medium at pH 7 after 2 days; assay type: functional; details: IFO 0342, 48 h
Wickerhamomyces anomalus [8] = experiment: Antifungal activity against Hansenula anomala IFO 0136 in Malt Wort medium at pH 5 after 2 days; assay type: functional; details: IFO 0136, 48 h
Saccharomyces cerevisiae [9] = experiment: Antifungal activity against Saccharomyces cerevisiae IFO 0203 in Henneberg medium at pH 7 after 2 days; assay type: functional; details: IFO 0203, 48 h
Saccharomyces cerevisiae [10] = experiment: Antifungal activity against Saccharomyces cerevisiae IFO 0203 in Henneberg medium at pH 5.2 after 2 days; assay type: functional; details: IFO 0203, 48 h
Saccharomyces cerevisiae [11] = experiment: Antifungal activity against Saccharomyces cerevisiae IFO 0203 assessed as fetal loss of cellular constituents at 50 ug/mL after 10 mins by microscopy; assay type: functional, organism-based
Cyberlindnera jadinii [12] = experiment: Antifungal activity against Candida utilis ATCC 42402 in Henneberg medium at pH 7 after 2 days; assay type: functional; details: Williopsis jadinii, ATCC 42402, 48 h
[13] = system: Schizosaccharomyces pombe; experiment: Antifungal activity against Schizosaccharomyces pombe IFO 0342 in Malt Wort medium at pH 5 after 2 days; assay type: functional; details: IFO 0342, 48 h
Saccharomyces cerevisiae [14] = experiment: Antifungal activity against Saccharomyces cerevisiae IFO 0203 in Malt Wort medium at pH 5 after 2 days; assay type: functional; details: IFO 0203, 48 h
Wickerhamomyces anomalus [15] = experiment: Antifungal activity against Hansenula anomala IFO 0136 in Henneberg medium at pH 3.1 after 2 days; assay type: functional; details: IFO 0136, 48 h
Cyberlindnera jadinii [16] = experiment: Antifungal activity against Candida utilis ATCC 42402 in Henneberg medium at pH 5.2 after 2 days; assay type: functional; details: Williopsis jadinii, ATCC 42402, 48 h
[17] = system: Schizosaccharomyces pombe; experiment: Antifungal activity against Schizosaccharomyces pombe IFO 0342 in Henneberg medium at pH 3.1 after 2 days; assay type: functional; details: IFO 0342, 48 h
Wickerhamomyces anomalus [18] = experiment: Antifungal activity against Hansenula anomala IFO 0136 in Henneberg medium at pH 7 after 2 days; assay type: functional; details: IFO 0136, 48 h
Cyberlindnera jadinii [19] = experiment: Antifungal activity against Candida utilis ATCC 42402 in Henneberg medium at pH 3.1 after 2 days; assay type: functional; details: Williopsis jadinii, ATCC 42402, 48 h
Saccharomyces cerevisiae [20] = experiment: Antifungal activity against Saccharomyces cerevisiae IFO 0203 in Henneberg medium at pH 3.1 after 2 days; assay type: functional; details: IFO 0203, 48 h
Cyberlindnera jadinii [21] = experiment: Antifungal activity against Candida utilis ATCC 42402 in Malt Wort medium at pH 5 after 2 days; assay type: functional; details: Williopsis jadinii, ATCC 42402, 48 h
Saccharomyces cerevisiae [22] = experiment: Antifungal activity against Saccharomyces cerevisiae IFO 0203 assessed as leakage of cellular constituents at 1 to 10 ug/mL by phenol-sulphuric acid reagent method; assay type: functional, organism-based
Saccharomyces cerevisiae [23] = experiment: Antifungal activity against Saccharomyces cerevisiae IFO 0203 assessed as organelle disorganization at 50 ug/mL after 10 mins by microscopy; assay type: functional, organism-based
[24] = system: Schizosaccharomyces pombe; experiment: Antifungal activity against Schizosaccharomyces pombe IFO 0342 in Henneberg medium at pH 5.2 after 2 days; assay type: functional; details: IFO 0342, 48 h
Wickerhamomyces anomalus [25] = experiment: Antifungal activity against Hansenula anomala IFO 0136 in Henneberg medium at pH 5.2 after 2 days; assay type: functional; details: IFO 0136, 48 h

**Q.** Which MIC (Saccharomyces cerevisiae [1]) does the source give for `C=C1[C@@H](C)CC[C@@]2(C)[C@H]1CC=C(C=O)[C@]2(O)C=O` here?
**A.** 1.56 µg/mL (≈ 6.28 µM)

**Q.** And the MIC [2]?
**A.** 100 µg/mL (≈ 403 µM)

**Q.** What about the MIC (Pseudomonas aeruginosa) of the same compound?
**A.** > 100 µg/mL

**Q.** What about the MIC (Micrococcus luteus) of the same compound?
**A.** > 100 µg/mL

**Q.** And the MIC (Bacillus subtilis)?
**A.** > 100 µg/mL

**Q.** And the MIC (Mucor mucedo)?
**A.** 25 µg/mL (≈ 101 µM)

**Q.** And the MIC (Staphylococcus aureus)?
**A.** > 100 µg/mL

**Q.** And the MIC (Cyberlindnera jadinii [3])?
**A.** 3.13 µg/mL (≈ 12.6 µM)

**Q.** What about the MIC (Wickerhamomyces anomalus [4]) of the same compound?
**A.** 25 µg/mL (≈ 101 µM)

**Q.** And the MIC (Penicillium crustosum)?
**A.** 50 µg/mL (≈ 201 µM)

**Q.** And the MIC (Aspergillus niger)?
**A.** 50 µg/mL (≈ 201 µM)

**Q.** And the MIC (Sclerotinia)?
**A.** 3.13 µg/mL (≈ 12.6 µM)

**Q.** And the MIC (Escherichia coli)?
**A.** > 100 µg/mL

**Q.** What about the MIC (Proteus vulgaris) of the same compound?
**A.** > 100 µg/mL

**Q.** And the MIC [5]?
**A.** 25 µg/mL (≈ 101 µM)

**Q.** `Cc1c2oc3c(C)ccc(C(=O)N[C@@H]4C(=O)N[C@H](C(C)C)C(=O)N5CCC[C@H]5C(=O)N(C)CC(=O)N(C)[C@@H](C(C)C)C(=O)O[C@@H]4C)c3nc-2c(C(=O)N[C@@H]2C(=O)N[C@H](C(C)C)C(=O)N3CCC[C@H]3C(=O)N(C)CC(=O)N(C)[C@@H](C(C)C)C(=O)O[C@@H]2C)c(N)c1=O` (I: T[dV]P[Sar][NMeV] / II: T[dV]P[Sar][NMeV]; ester I:1-I:C, II:1-II:C; linker I:N-II:N via Actinocin(9to1)) was tested. Which Activity (Cyberlindnera jadinii [3]) did it give?
**A.** inactive

**Q.** Which Activity (Saccharomyces cerevisiae [6]) does the source give for `CC1(C)CCC[C@]2(C)[C@@H](C=O)C(C=O)=CC[C@@H]12` [POLYGODIAL] here?
**A.** Active

**Q.** What about the MIC (Saccharomyces cerevisiae [1]) of the same compound?
**A.** 0.78 µg/mL (≈ 3.33 µM)

**Q.** And the MIC [7]?
**A.** > 25 µg/mL

**Q.** And the MIC (Wickerhamomyces anomalus [8])?
**A.** 1.56 µg/mL (≈ 6.66 µM)

**Q.** And the MIC (Saccharomyces cerevisiae [9])?
**A.** > 25 µg/mL

**Q.** And the MIC [2]?
**A.** 12.5 µg/mL (≈ 53.3 µM)

**Q.** What about the MIC (Saccharomyces cerevisiae [10]) of the same compound?
**A.** 1.56 µg/mL (≈ 6.66 µM)

**Q.** And the MIC (Pseudomonas aeruginosa)?
**A.** > 100 µg/mL

**Q.** And the Activity (Saccharomyces cerevisiae [11])?
**A.** Active

**Q.** And the MIC (Cyberlindnera jadinii [12])?
**A.** > 25 µg/mL

**Q.** What about the MIC [13] of the same compound?
**A.** 6.25 µg/mL (≈ 26.7 µM)

**Q.** What about the MIC (Saccharomyces cerevisiae [14]) of the same compound?
**A.** 0.78 µg/mL (≈ 3.33 µM)

**Q.** What about the MIC (Micrococcus luteus) of the same compound?
**A.** > 100 µg/mL

**Q.** And the MIC (Bacillus subtilis)?
**A.** > 100 µg/mL

**Q.** And the MIC (Mucor mucedo)?
**A.** 6.25 µg/mL (≈ 26.7 µM)

**Q.** And the MIC (Wickerhamomyces anomalus [15])?
**A.** 1.56 µg/mL (≈ 6.66 µM)

**Q.** And the MIC (Cyberlindnera jadinii [16])?
**A.** 3.13 µg/mL (≈ 13.4 µM)

**Q.** And the MIC [17]?
**A.** 6.25 µg/mL (≈ 26.7 µM)

**Q.** And the MIC (Wickerhamomyces anomalus [18])?
**A.** > 25 µg/mL

**Q.** What about the MIC (Staphylococcus aureus) of the same compound?
**A.** > 100 µg/mL

**Q.** And the MIC (Cyberlindnera jadinii [19])?
**A.** 0.78 µg/mL (≈ 3.33 µM)

**Q.** What about the MIC (Saccharomyces cerevisiae [20]) of the same compound?
**A.** 0.2 µg/mL (≈ 0.853 µM)

**Q.** What about the MIC (Cyberlindnera jadinii [21]) of the same compound?
**A.** 1.56 µg/mL (≈ 6.66 µM)

**Q.** And the MIC (Cyberlindnera jadinii [3])?
**A.** 1.56 µg/mL (≈ 6.66 µM)

**Q.** And the MIC (Wickerhamomyces anomalus [4])?
**A.** 1.56 µg/mL (≈ 6.66 µM)

**Q.** And the MIC (Penicillium crustosum)?
**A.** 25 µg/mL (≈ 107 µM)

**Q.** And the MIC (Aspergillus niger)?
**A.** 25 µg/mL (≈ 107 µM)

**Q.** What about the MIC (Sclerotinia) of the same compound?
**A.** 1.56 µg/mL (≈ 6.66 µM)

**Q.** What about the Activity (Saccharomyces cerevisiae [22]) of the same compound?
**A.** Active

**Q.** What about the MIC (Escherichia coli) of the same compound?
**A.** > 100 µg/mL

**Q.** And the Activity (Saccharomyces cerevisiae [23])?
**A.** Active

**Q.** And the MIC (Proteus vulgaris)?
**A.** > 100 µg/mL

**Q.** And the MIC [24]?
**A.** 25 µg/mL (≈ 107 µM)

**Q.** And the MIC (Wickerhamomyces anomalus [25])?
**A.** 6.25 µg/mL (≈ 26.7 µM)

**Q.** And the MIC [5]?
**A.** 6.25 µg/mL (≈ 26.7 µM)

**Q.** Which results are given for `CC1(C)CCC[C@@]2(C)[C@H]1CC=C(C=O)[C@]2(O)C=O` [WARBURGANAL]?
**A.** MIC (Saccharomyces cerevisiae [1]): 3.13 µg/mL (≈ 12.5 µM); MIC [2]: 100 µg/mL (≈ 399 µM); MIC (Pseudomonas aeruginosa): > 100 µg/mL; MIC (Micrococcus luteus): > 100 µg/mL; MIC (Bacillus subtilis): > 100 µg/mL; MIC (Mucor mucedo): 25 µg/mL (≈ 99.9 µM); MIC (Staphylococcus aureus): > 100 µg/mL; MIC (Cyberlindnera jadinii [3]): 3.13 µg/mL (≈ 12.5 µM); MIC (Wickerhamomyces anomalus [4]): 12.5 µg/mL (≈ 49.9 µM); MIC (Penicillium crustosum): 50 µg/mL (≈ 200 µM); MIC (Aspergillus niger): 50 µg/mL (≈ 200 µM); MIC (Sclerotinia): 3.13 µg/mL (≈ 12.5 µM); MIC (Escherichia coli): > 100 µg/mL; MIC (Proteus vulgaris): > 100 µg/mL; MIC [5]: 12.5 µg/mL (≈ 49.9 µM)

— ChEMBL document CHEMBL1150741, “Polygodial, an antifungal potentiator” (1988)
